Source: the supplement of paper PMC10331698
± gives the standard deviation of the averaged measurements.

Experiments:
Experiment in all cases: level (log10 ratio to DMSO vehicle control); higher = higher biomarker level / cell amount than vehicle control
Settings in all cases: in DMSO
[1] = compound: FC(F)(F)C(F)(F)C(F)(F)C(F)(F)C(F)(F)CCI [1-Iodo-1H,1H,2H,2H-perfluoroheptane]
Protocol: (§1)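 BioMAP Diversity Plus panel of 12 human primary cell co-culture systems (3C, 4H, LPS, SAg, BT, BF4T, BE3C, CASM3C, HDF3CGF, KF3CT, MyoF, Mphg). Compounds were added 1 h before stimulation and left for 24 h (MyoF 48 h; BT 72 h for soluble read-outs or 6 d for IgG). Biomarkers were read by ELISA, cytotoxicity by SRB, PBMC viability and proliferation by Alamar Blue. Each well value was divided by the mean of 8 DMSO control wells on the same plate and log10 transformed; duplicate blinded samples were tested at 4 concentrations.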

[2] = compound: NC(=O)C(F)(F)C(F)(F)C(F)(F)F [Heptafluorobutyramide]
Protocol: as §1

[3] = compound: FC(F)C(F)(F)COCC1CO1 [((2,2,3,3-Tetrafluoropropoxy)methyl)oxirane]
Protocol: as §1

[4] = compound: O=C(O)C(F)(F)C(F)(F)C(F)F [4H-Perfluorobutanoic acid]
Protocol: as §1

[5] = compound: O=C(O)C(F)(F)C(F)(F)C(F)(F)C(F)(F)C(F)(F)C(F)(F)F [Perfluoroheptanoic acid]
Protocol: as §1

[6] = compound: O=C(O)C(F)(F)OC(F)(F)C(F)(F)OC(F)(F)C(=O)O [Perfluoro-3,6-dioxaoctane-1,8-dioic acid]
Protocol: as §1

[7] = compound: C=C(C)C(=O)OCCC(F)(F)C(F)(F)C(F)(F)C(F)(F)C(F)(C(F)(F)F)C(F)(F)F [(Perfluoro-5-methylhexyl)ethyl 2-methylprop-2-enoate]
Protocol: as §1

Test System	level (log10) ([1]; 6700 nM)	level (log10) ([1]; 20000 nM)	level (log10) ([1]; 60000 nM)	level (log10) ([2]; 6700 nM)	level (log10) ([2]; 20000 nM)	level (log10) ([2]; 60000 nM)	level (log10) ([3]; 6700 nM)	level (log10) ([3]; 20000 nM)	level (log10) ([3]; 60000 nM)	level (log10) ([4]; 6700 nM)	level (log10) ([4]; 20000 nM)	level (log10) ([4]; 60000 nM)	level (log10) ([5]; 6700 nM)	level (log10) ([5]; 20000 nM)	level (log10) ([5]; 60000 nM)	level (log10) ([6]; 6700 nM)	level (log10) ([6]; 20000 nM)	level (log10) ([6]; 60000 nM)	level (log10) ([7]; 6700 nM)	level (log10) ([7]; 20000 nM)
SAg:CD62E/E-Selectin	0.023 ± 0.062	-0.0295 ± 0.0078	0.017 ± 0.0085	0.0035 ± 0.023	-0.008 ± 0.047	-0.0065 ± 0.022	0.0075 ± 0.018	-0.002 ± 0.023	0.009 ± 0.047	-0.0205 ± 0.018	-0.002 ± 0.0014	0.0175 ± 0.0078	-0.025 ± 0.0085	0.011	0.008 ± 0.013	0.007 ± 0.0085	0.011 ± 0.0028	0.011 ± 0.021	0.0215 ± 0.011	0.007 ± 0.014
BF4T:CCL2/MCP-1	-0.008 ± 0.025	-0.044 ± 0.044	-0.055 ± 0.02	0.008 ± 0.058	-0.011 ± 0.04	0.014 ± 0.047	-0.0155 ± 0.019	-0.0095 ± 0.013	0.011 ± 0.044	-0.012 ± 0.0085	0.004 ± 0.011	0.0475 ± 0.069	0.0155 ± 0.056	0.019 ± 0.067	0.0365 ± 0.12	0.018 ± 0.027	0.0135 ± 0.053	0.0265 ± 0.043	0.012 ± 0.011	0.0275 ± 0.005
BT:Secreted IgG	-0.006 ± 0.016	-0.002 ± 0.062	-0.0185 ± 0.08	0.034 ± 0.0085	-0.005 ± 0.031	0.0285 ± 0.025	0.0295 ± 0.047	-0.003 ± 0.071	-0.0065 ± 0.098	0.0315 ± 0.036	0.0205 ± 0.03	0.014 ± 0.041	0.0185 ± 0.0092	0.007 ± 0.027	-0.0365 ± 0.011	0.032 ± 0.025	0.0095 ± 0.005	-0.0365 ± 0.036	-0.0085 ± 0.044	-0.023 ± 0.0085
SAg:Proliferation	-0.014 ± 0.035	-0.0145 ± 0.0064	-0.15 ± 0.054	-0.0035 ± 0.03	-0.0055 ± 0.00071	-0.0265 ± 0.011	-0.0075 ± 0.019	-0.02 ± 0.03	-0.0095 ± 0.0092	-0.0545 ± 0.026	-0.0325 ± 0.025	-0.0145 ± 0.03	0.0045 ± 0.032	0.0275 ± 0.035	0.028 ± 0.034	-0.017 ± 0.05	-0.011 ± 0.035	-0.0085 ± 0.021	0.011 ± 0.0085	0.009 ± 0.018
BT:PBMC Cytotoxicity	-0.012 ± 0.03	-0.0265 ± 0.028	-0.024 ± 0.011	0.014 ± 0.0099	0.0025 ± 0.025	0.0105 ± 0.013	0.0145 ± 0.0021	-0.011 ± 0.0085	-0.0135 ± 0.005	-0.0175 ± 0.018	-0.0075 ± 0.0035	-0.002 ± 0.047	-0.0175 ± 0.0064	0.001 ± 0.0057	0.063 ± 0.0014	-0.018 ± 0.057	-0.0495 ± 0.0064	-0.0125 ± 0.012	0.004 ± 0.0057	0.007 ± 0.021
BF4T:CCL26/Eotaxin-3	-0.0135 ± 0.012	-0.0315 ± 0.0092	-0.17 ± 0.021	0.0165 ± 0.022	-0.0035 ± 0.0021	0.0045 ± 0.012	0.005 ± 0.033	0.0055 ± 0.052	0.031 ± 0.05	-0.035 ± 0.011	0.0085 ± 0.0035	-0.0115 ± 0.063	0.0145 ± 0.019	-0.0055 ± 0.013	-0.031 ± 0.081	-0.048 ± 0.059	-0.037 ± 0.033	0.0145 ± 0.11	-0.0125 ± 0.0064	0.016 ± 0.044
3C:SRB	0.006 ± 0.013	-0.019 ± 0.0042	-0.0175 ± 0.013	-0.0235 ± 0.04	-0.0095 ± 0.0078	-0.007 ± 0.024	-0.0085 ± 0.0078	-0.008 ± 0.0028	-0.004 ± 0.0099	0.0015 ± 0.0064	-0.007 ± 0.016	-0.0075 ± 0.013	-0.0065 ± 0.0078	0.005 ± 0.0085	-0.0255 ± 0.0035	0.0055 ± 0.0064	-0.0055 ± 0.016	-0.004 ± 0.0014	-0.008 ± 0.0042	-0.0175 ± 0.0078
BE3C:CD54/ICAM-1	0 ± 0.013	-0.016 ± 0.011	0.006 ± 0.02	-0.0195 ± 0.019	0.002 ± 0.0014	0.0035 ± 0.015	0.011 ± 0.011	-0.0035 ± 0.0092	0.011 ± 0.027	-0.0085 ± 0.0021	-0.0245 ± 0.00071	0.0125 ± 0.033	-0.007 ± 0.0071	-0.023 ± 0.0028	-0.0055 ± 0.022	-0.003 ± 0.021	-0.0035 ± 0.0092	0.002 ± 0.038	-0.0075 ± 0.0021	0.005 ± 0.0042
3C:HLA-DR	-0.001 ± 0.016	0.006 ± 0.0042	-0.0035 ± 0.0064	0.005 ± 0.0099	0.008 ± 0.0057	-0.007 ± 0.0028	0.012 ± 0.0085	0.013 ± 0.021	0.0235 ± 0.043	-0.003 ± 0.0057	-0.013 ± 0.011	0.011 ± 0.014	0.006 ± 0.017	0.004 ± 0.013	0.034 ± 0.047	0.008 ± 0.018	-0.037 ± 0.013	-0.0065 ± 0.012	-0.004 ± 0.016	-0.023 ± 0.02
3C:CXCL8/IL-8	0.011 ± 0.0085	0.0065 ± 0.016	0.051 ± 0.017	0.008 ± 0.0071	-0.0035 ± 0.016	0.0105 ± 0.011	-0.0255 ± 0.005	-0.0275 ± 0.0021	0.003 ± 0.042	-0.0015 ± 0.054	0.009 ± 0.0071	0.0395 ± 0.042	0.0285 ± 0.04	0.0305 ± 0.056	0.0955 ± 0.088	-0.015 ± 0.051	-0.013 ± 0.034	-0.007 ± 0.059	0.0105 ± 0.03	0.054 ± 0.086
BF4T:CD106/VCAM-1	-0.029 ± 0.0071	-0.0615 ± 0.0064	-0.11 ± 0.012	-0.006 ± 0.0014	-0.013 ± 0.0085	0.021 ± 0.069	0.003 ± 0.0028	-0.003 ± 0.0057	0.0185 ± 0.043	0.0145 ± 0.033	-0.0365 ± 0.054	0.028 ± 0.078	-0.0015 ± 0.029	0.0115 ± 0.015	0.029 ± 0.0099	-0.0385 ± 0.022	-0.042 ± 0.0071	0.006 ± 0.071	-0.012 ± 0.02	0.0325 ± 0.036
BF4T:uPA	0.0125 ± 0.033	0.005 ± 0.0071	0.0135 ± 0.0064	-0.0045 ± 0.03	-0.006 ± 0.013	-0.006 ± 0.014	-0.003 ± 0.0028	-0.0005 ± 0.013	0.0135 ± 0.036	0.002 ± 0.016	0.019 ± 0.0014	0.0105 ± 0.0021	-0.017 ± 0.0057	-0.0115 ± 0.012	0.009 ± 0.0085	-0.007 ± 0.013	-0.015 ± 0.0028	0.0035 ± 0.03	-0.0295 ± 0.0064	-0.063 ± 0.0014
3C:Proliferation	0.001 ± 0.027	-0.0465 ± 0.03	-0.163 ± 0.052	0.006 ± 0.04	0.003 ± 0.051	-0.006 ± 0.045	-0.034 ± 0.016	-0.0165 ± 0.00071	-0.039 ± 0.02	-0.023 ± 0.02	-0.03 ± 0.041	0.013 ± 0.065	-0.0365 ± 0.028	0.0245 ± 0.057	-0.109 ± 0.057	0.002 ± 0.0028	-0.038 ± 0.044	-0.033 ± 0.014	0.004 ± 0.052	-0.0305 ± 0.0021
